pKi: −log10 of the molar value.
Test: The compound was evaluated for the inhibition of glycogen phosphorylase

**Q.** With `O=C(Nc1ccccc1)C1OC(CO)C(O)C(O)C1O` (stereo unspecified) as the compound, how does the pKi read?
**A.** 2.27

**Q.** With `NCC(=O)N[C@H]1O[C@@H](CO)[C@@H](O)[C@H](O)[C@@H]1O` as the compound, how does the pKi read?
**A.** 3.43

**Q.** With `O=C(N[C@H]1O[C@H](CO)[C@@H](O)[C@H](O)[C@H]1O)c1ccccc1` as the compound, how does the pKi read?
**A.** 4.09

**Q.** With `CCC(=O)N[C@H]1O[C@H](CO)[C@@H](O)[C@H](O)[C@H]1O` as the compound, how does the pKi read?
**A.** 4.41

**Q.** With `O=C(CBr)N[C@H]1O[C@@H](CO)[C@@H](O)[C@H](O)[C@@H]1O` as the compound, how does the pKi read?
**A.** 4.36

**Q.** With `CNC(=O)C1OC(CO)C(O)C(O)C1O` (stereo in doubt; 22) as the compound, how does the pKi read?
**A.** 1.44

**Q.** With `CCCC(=O)N[C@H]1O[C@H](CO)[C@@H](O)[C@H](O)[C@H]1O` as the compound, how does the pKi read?
**A.** 4.03

**Q.** With `CNC(=O)C1OC(CO)C(O)C(O)C1O` (stereo in doubt; 8) as the compound, how does the pKi read?
**A.** 3.80

**Q.** With `OC[C@H]1O[C@](O)(CO)[C@@H](O)[C@H](O)[C@H]1O` as the compound, how does the pKi read?
**A.** 1.80

**Q.** With `CC(=O)N[C@H]1O[C@H](CO)[C@@H](O)[C@H](O)[C@H]1O` as the compound, how does the pKi read?
**A.** 4.49

**Q.** With `NC(=O)C1OC(CO)C(O)C(O)C1O` (stereo in doubt; 10) as the compound, how does the pKi read?
**A.** 3.43

**Q.** With `CO[C@@H]1O[C@H](CO)[C@H](O)[C@H](O)[C@H]1O` as the compound, how does the pKi read?
**A.** 1.61

**Q.** With `O=C(CCl)N[C@H]1O[C@H](CO)[C@@H](O)[C@H](O)[C@H]1O` as the compound, how does the pKi read?
**A.** 4.35

**Q.** With `NNC(=O)[C@@H]1O[C@H](CO)[C@@H](O)[C@H](O)[C@H]1O` as the compound, how does the pKi read?
**A.** 3.01

**Q.** With `NC(=O)C1OC(CO)C(O)C(O)C1O` (stereo in doubt; 11) as the compound, how does the pKi read?
**A.** 3.36

**Q.** With `OCC1OC(CO)C(O)C(O)C1O` (stereo unspecified) as the compound, how does the pKi read?
**A.** 2.82

**Q.** With `CC1OC(CO)C(O)C(O)C1O` (stereo unspecified) as the compound, how does the pKi read?
**A.** 1.27

**Q.** With `NC(=O)N[C@H]1O[C@H](CO)[C@@H](O)[C@H](O)[C@H]1O` as the compound, how does the pKi read?
**A.** 3.85

**Q.** With `NCC1OC(CO)C(O)C(O)C1O` (stereo unspecified) as the compound, how does the pKi read?
**A.** 1.46

**Q.** With `OCC1OC(S)C(O)C(O)C1O` (stereo unspecified) as the compound, how does the pKi read?
**A.** 3.00

**Q.** With `N#CC[C@@H]1O[C@H](CO)[C@@H](O)[C@H](O)[C@H]1O` as the compound, how does the pKi read?
**A.** 2.05

Reference: ChEMBL document CHEMBL1132272, “Prediction of ligand-receptor binding thermodynamics by free energy force field three-dimensional quantitative structure-activity relationship analysis: applications to a set of glucose analogue inhibitors of glycogen phosphorylase” (J Med Chem, 1999)
